The test system of one data set is A549 lung cancer cells. The data set is described as follows: EGF-induced ruffle formation. Particulars: 24 hours, then EGF 200 ng/mL; for loss in ruffles: 500 nmol/L; for decrease in ruffles: 1,000 nmol/L. The class given is cell-based, human. The protocol: Cells were fixed with 4% formaldehyde and F-actin stained with rhodamine phalloidin. Slides were visualized by fluorescence microscopy and five random fields were scored for the number of ruffles. Ruffle area was measured by thresholding for single intensity using ImageJ/Fiji software, as in ref. [29].

A further data set has as its system Rho. The data set is described as follows: Rho activation assay (Rho.GTP-binding domain of Rhotekin). Format: cell-based, human. Particulars: 250 nmol/L. An excerpt: Cells were lysed and equal amounts of proteins were subjected to pulldown assays using the p21-binding domain of PAK to isolate the GTP bound Rac1 or Cdc42. […] Top, Pulldown showing GTP bound Rac1; Middle, Total Rac1 in lysates; Bottom, Actin as a loading control. B, Right, Results from positive bands in Western blots quantified using ImageJ. […] Top band, Rac1B.GTP from the pulldown; Middle band, Total Rac1B from cell lysates; Bottom band, Actin (N = 3). […] Top, Pulldown showing GTP bound Cdc42; Middle, Total Cdc42 in lysates; Bottom, Actin as a loading control. E, Right, Results from positive bands in Western blots quantified using ImageJ. […] (n = 3–4; *, P < 0.05; **, P < 0.01; ns, not significant). Error bars represent SEM. […] Rho activation assay was done using the Rho.GTP-binding domain of Rhotekin. […] Cells were lysed and Western blotted for total and active PAK. Left, Top, Cell lysates probed with an anti PAK1/2/3 antibody; second, Western blot analysis with anti phospho (p)-PAK (1/2/3)^Ser141,144,154; third, Western blot analysis with p-PAK (1/2/3)^Thr423; fourth, Anti actin. H, Fold change in p-PAK/PAK for PAK 1/3 (68 kD) for total p-PAK^Ser141,144,154 and p-PAK^Thr423. (n = 3; **, P < 0.01; ***, P < 0.001; ns, not significant). […] Tumor lysates were Western blotted with antibodies specific for Rac1, Cdc42, PAK1/2/3, p-PAK (1/2/3)^Ser141,144,154, or p-PAK^Thr423. […]

Data set [1] deals with T1, Cdc42(G15A) interaction with Ect2 (Homo sapiens, UniProt P60953, G15A).
T1 construct: purchased Cell Biolabs; host or cells: GEF from MDA-MB-231 lysate
T1 sequence (P60953 whole entry G15A): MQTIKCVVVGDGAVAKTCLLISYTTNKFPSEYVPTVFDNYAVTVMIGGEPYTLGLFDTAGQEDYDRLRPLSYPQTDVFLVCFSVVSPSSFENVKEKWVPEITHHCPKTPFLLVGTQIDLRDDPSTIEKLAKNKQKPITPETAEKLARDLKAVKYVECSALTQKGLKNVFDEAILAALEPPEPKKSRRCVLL
Description: Cdc42 (G15A) pulldown assay, Ect2. Format: binding. The following applies: 250 nmol/L, 1 hour preincubation, MDA-MB-231 cell lysates. The protocol: MDA-MB-231 cells were lysed in 1% Triton X-100, 20 mmol/L HEPES, pH 7.4, 150 mmol/L NaCl, 5 mmol/L MgCl2, and protease inhibitors, and processed as described previously ([20]). Equal amounts of protein from cleared lysates were incubated for 1 hour at 4°C with glutathione-agarose beads conjugated to GST-Rac1 and GST-Cdc42(G15A) nucleotide-free mutant (Cell Biolabs) that were preincubated (for 1 hour) with vehicle or Rac/Cdc42 inhibitors, as indicated. The beads were washed, and pulldowns were immunoblotted for Vav2 or Ect2.

The target of a further data set is T2, CYP2C19 (Homo sapiens, UniProt P33261).
T2 construct: purchased Promega
T2 sequence (P33261 whole entry): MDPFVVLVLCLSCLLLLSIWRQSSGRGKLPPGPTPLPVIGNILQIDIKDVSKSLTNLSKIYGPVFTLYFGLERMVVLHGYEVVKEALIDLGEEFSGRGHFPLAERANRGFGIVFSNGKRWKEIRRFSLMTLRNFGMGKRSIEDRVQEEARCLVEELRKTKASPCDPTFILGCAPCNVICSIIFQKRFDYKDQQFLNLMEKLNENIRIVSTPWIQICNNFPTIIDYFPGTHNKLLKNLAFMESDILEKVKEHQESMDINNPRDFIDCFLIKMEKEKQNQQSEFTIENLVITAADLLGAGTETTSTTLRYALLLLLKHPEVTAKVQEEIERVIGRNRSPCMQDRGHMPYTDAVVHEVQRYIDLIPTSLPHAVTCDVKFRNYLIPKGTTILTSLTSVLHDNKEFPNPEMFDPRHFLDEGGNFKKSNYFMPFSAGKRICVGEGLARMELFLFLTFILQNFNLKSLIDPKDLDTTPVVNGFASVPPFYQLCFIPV
Description: CyP450 enzyme assay (P450-Glo). The class given is in vitro ADME. As for the experimental part: (§1) The assay was carried out using P450-Glo Screening System (Promega). The system contained recombinant human CYP enzyme and P450 reductase (and cytochrome b5 for CYP2C9, 2C19, and 3A4), luminogenic substrates appropriate for each CYP enzyme, a NADPH regeneration system (containing NADP+), and luciferin detection reagent. […] These compounds and organic solvents acetonitrile, and DMSO were purchased from Sigma-Aldrich.
(§2) First, 12.5 μL of the 4X stock solution of test compounds or positive controls (appropriate for each enzyme) were added to the “treated” wells. For the “untreated” (the values from these wells represent total CYP activity) and “minus-P450 control” wells (the values from these wells represent the CYP-independent background luminescence of the assay), 12.5 μL of vehicle was added. Then, 12.5 μL of the 4X control reaction mixture (containing membrane preparations devoid of CYP enzymes, the appropriate luminogenic substrate, and potassium phosphate buffer) were added to the minus-P450 control wells, and 12.5 μL of the 4X reaction mixture (containing human CYP membrane preparations, the appropriate luminogenic substrate, and potassium phosphate buffer) were added to all other wells. The plates were preincubated at room temperature for 10 minutes with the reaction mixture (membrane with enzyme, substrate, and 1 mol/L potassium phosphate buffer), and then 2X NADPH regeneration system was added to initiate the reaction. After incubation at room temperature for 30 minutes, 50 μL of the Luciferin Detection Reagent was added to stop the reaction and generate the luminescent signal. Before reading, the plate was incubated at room temperature for 20 minutes to stabilize the luminescent signal. The luminescence was measured using an Infinite F200 plate reader (Tecan). […] The percentage of CYP enzyme activity versus log concentration of test compounds were plotted to calculate the IC50 values.

A further data set deals with T3, CYP2C9 (Homo sapiens, UniProt P11712).
T3 construct: purchased Promega
T3 sequence (P11712 whole entry): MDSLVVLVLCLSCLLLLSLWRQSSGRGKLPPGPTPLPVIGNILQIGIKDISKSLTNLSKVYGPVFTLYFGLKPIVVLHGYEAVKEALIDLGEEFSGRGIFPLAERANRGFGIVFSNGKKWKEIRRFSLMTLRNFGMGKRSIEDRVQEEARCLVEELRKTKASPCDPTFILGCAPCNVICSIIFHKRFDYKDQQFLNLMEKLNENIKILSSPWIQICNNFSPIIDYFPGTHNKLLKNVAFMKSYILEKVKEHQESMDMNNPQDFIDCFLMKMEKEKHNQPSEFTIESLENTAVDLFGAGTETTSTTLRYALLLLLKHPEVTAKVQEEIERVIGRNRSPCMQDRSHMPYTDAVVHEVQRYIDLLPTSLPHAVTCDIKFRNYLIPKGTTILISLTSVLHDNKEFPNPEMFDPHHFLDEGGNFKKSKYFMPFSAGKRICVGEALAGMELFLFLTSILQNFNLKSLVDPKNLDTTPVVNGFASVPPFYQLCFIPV
The data set is described as follows: CyP450 enzyme assay (P450-Glo). Format: in vitro ADME. Particulars: recombinant human CYP enzyme, 0.001–100 μmol/L. As for the experimental part: as §1, §2

The target of a further data set is T4, CYP3A4 (Homo sapiens, UniProt P08684).
T4 construct: purchased Promega
T4 sequence (P08684 whole entry): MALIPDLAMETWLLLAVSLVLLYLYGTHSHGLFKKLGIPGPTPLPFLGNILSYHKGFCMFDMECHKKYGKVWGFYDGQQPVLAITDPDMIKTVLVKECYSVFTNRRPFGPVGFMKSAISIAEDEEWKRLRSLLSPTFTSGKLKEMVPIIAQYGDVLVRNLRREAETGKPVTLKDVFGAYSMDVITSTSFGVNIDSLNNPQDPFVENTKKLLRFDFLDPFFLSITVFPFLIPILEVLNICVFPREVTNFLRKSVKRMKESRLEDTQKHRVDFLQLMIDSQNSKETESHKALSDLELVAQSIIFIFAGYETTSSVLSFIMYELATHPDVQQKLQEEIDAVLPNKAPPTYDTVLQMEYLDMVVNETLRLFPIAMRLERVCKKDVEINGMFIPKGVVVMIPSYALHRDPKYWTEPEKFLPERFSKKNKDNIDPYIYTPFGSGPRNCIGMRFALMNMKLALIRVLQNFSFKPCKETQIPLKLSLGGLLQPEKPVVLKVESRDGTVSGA
The data set is described as follows: CyP450 enzyme assay (P450-Glo). The class given is in vitro ADME. Particulars: for IC50: recombinant human CYP enzyme, 0.001–100 μmol/L. As for the experimental part:
as §1, §2

The target in another data set is Cdc42 (Homo sapiens, UniProt P60953). Description: Nucleotide association assay, catalyzed by Dbs. The class given is biochemical. On the set-up: purchased Cytoskeleton, Inc. Particulars: 2 or 10 μmol/L, N-MAR-GTP. As for the experimental part:
The nucleotide loading on purified Rho GTPases was monitored using a fluorophore-based Rho GEF Exchange Assay Kit as per manufacturer's instructions (Cytoskeleton, Inc.). Drugs were diluted in exchange buffer and incubated with Rac1, Cdc42, or RhoA. The uptake of fluorescent nucleotide analog N-methylanthraniloyl-GTP (N-MAR-GTP) was measured as an increase in fluorescence due to binding to the nucleotide binding pocket of a GTPase. The fluorimeter was set at 20°C on kinetic mode and N-MAR GTP was detected at […]. After the initial five readings (T0), GEFs (Dbs or Vav2) or Ethylenediaminetetraacetic acid (EDTA) was added to stimulate exchange and readings were obtained every 30 seconds for at least 60 cycles.

Chain of Cdc42 (P60953 whole entry): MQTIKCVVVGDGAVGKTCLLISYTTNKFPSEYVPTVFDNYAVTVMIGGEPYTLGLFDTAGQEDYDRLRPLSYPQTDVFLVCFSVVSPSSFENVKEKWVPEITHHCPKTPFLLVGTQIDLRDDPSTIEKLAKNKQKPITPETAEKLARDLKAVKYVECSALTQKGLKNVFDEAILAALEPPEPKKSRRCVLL

Consider `CCn1c2ccccc2c2cc(-n3nncc3-c3ccccc3)ccc21` [MBQ-167], for which the loss in ruffles in the data set on A549 lung cancer cells is recorded as 54%. This compound gave a decrease in ruffles with A549 lung cancer cells of 63%. For the same compound, the Rho activation result in the data set with Rho is “do not affect”. In data set [1], the “Cdc42(G15A) interaction with Ect2” value is listed as “no effect”. Further, the 50% inhibitory concentration (IC50) stood at 455 nM on CYP2C19 (recombinant human CYP enzyme, 0.001–100 μmol/L); 890 nM at CYP2C9; 280 nM on CYP3A4. Also, the “inhibition of GTP loading on Cdc42 catalyzed by Dbs” value against Cdc42 is reported as “did not affect”.

`CCn1c2ccccc2c2cc(-n3nncc3-c3cccc(OC)c3)ccc21` [MBQ-168]: in the data set with A549 lung cancer cells, the loss in ruffles is 67% and the decrease in ruffles amounted to 79%. Moreover, the Rho activation entry in the data set with Rho is given as “do not affect”. The “Cdc42(G15A) interaction with Ect2” value in data set [1] was “no effect”. Besides, on CYP2C19, the “CYP2C19 IC50, fold lower than the IC50 for the positive control” value is listed as “approximately 6 fold”. Moreover, the IC50 at 30 min at CYP2C19 (human, recombinant human CYP enzyme, 0.001–100 μmol/L) is 523 nM. The IC50 on CYP2C9 came out at 670 nM. At CYP3A4, the “potency at inhibiting CYP3A4, times less potent than MBQ-167” value was “approximately 10 X” and the IC50 amounted to 3180 nM. Also, the “inhibition of GTP loading on Cdc42 catalyzed by Dbs” value against Cdc42 is 10%–20%.

As a reminder, the IC50 is the concentration that gives 50% inhibition.

The record behind these values is PMC9970268 (Cancer Research Communications, 2022).
